Test results taken from PubChem BioAssay AID328 (DTP/NCI, 2004).
Toxic doses and inconclusive results are not listed.

Tested on: BDF1 mice, P388 leukemia ip, median survival T/C
Assay: NCI In Vivo Anticancer Drug Screen. Data for tumor model P388 Leukemia (intraperitoneal) in B6D2F1 (BDF1) mice
Settings: endpoint: median survival time, higher = longer survival
Method in brief: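 In tumour-bearing mice, survival after compound treatment is set against the vehicle group and given as a quotient.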

[1] = dose: 100.0 mg/kg/injection, schedule: Q04DX003 (ip), vehicle: Klucel (hydroxypropylcellulose) (HPC)
[2] = dose: 200.0 mg/kg/injection, schedule: Q04DX003 (ip), vehicle: Klucel (hydroxypropylcellulose) (HPC)
[3] = dose: 400.0 mg/kg/injection, schedule: Q04DX003 (ip), vehicle: Klucel (hydroxypropylcellulose) (HPC)
[4] = dose: 100.0 mg/kg/injection, schedule: Q01DX009 (ip), vehicle: saline with Tween-80
[5] = dose: 100.0 mg/kg/injection, schedule: Q04DX003 (ip), vehicle: saline with Tween-80
[6] = dose: 200.0 mg/kg/injection, schedule: Q04DX003 (ip), vehicle: saline with Tween-80
[7] = dose: 400.0 mg/kg/injection, schedule: Q04DX003 (ip), vehicle: saline with Tween-80
[8] = dose: 100.0 mg/kg/injection, schedule: Q01DX009 (ip), vehicle: Klucel (hydroxypropylcellulose) (HPC)
[9] = dose: 200.0 mg/kg/injection, schedule: Q01DX009 (ip), vehicle: Klucel (hydroxypropylcellulose) (HPC)
[10] = dose: 400.0 mg/kg/injection, schedule: Q01DX009 (ip), vehicle: Klucel (hydroxypropylcellulose) (HPC)

NC1=C(c2ccccc2)C(=O)c2ccccc21
T/C [1]: 104 % of control
T/C [2]: 109 % of control
T/C [3]: 109 % of control

COC(=S)SCN(CSC(=S)OC)c1ccccc1Cl
T/C [4]: 118 % of control
T/C (dose: 400.0 mg/kg/injection, schedule: Q01DX009 (ip), vehicle: saline with Tween-80): 159 % of control
T/C (dose: 600.0 mg/kg/injection, schedule: Q01DX009 (ip), vehicle: saline with Tween-80): 158 % of control

C=C[P+](c1ccccc1)(c1ccccc1)c1ccccc1
T/C (dose: 1.0 mg/kg/injection, schedule: Q01DX009 (ip), vehicle: saline): 110 % of control
T/C (dose: 1.5 mg/kg/injection, schedule: Q01DX010 (ip), vehicle: saline): 95 % of control
T/C (dose: 2.5 mg/kg/injection, schedule: Q01DX009 (ip), vehicle: saline): 150 % of control
T/C (dose: 3.0 mg/kg/injection, schedule: Q01DX010 (ip), vehicle: saline): 116 % of control
T/C (dose: 3.3 mg/kg/injection, schedule: Q04DX003 (ip), vehicle: saline): 120 % of control
T/C (dose: 3.7 mg/kg/injection, schedule: Q01DX009 (ip), vehicle: saline): 89 % of control
T/C (dose: 5.0 mg/kg/injection, schedule: Q01DX009 (ip), vehicle: saline): 95 % of control

CCCSCC(C)C
T/C [5]: 100 % of control
T/C [6]: 109 % of control
T/C [7]: 90 % of control

NC(=O)CCC(N)C(=O)O.[Cl-].[Cl-].[Cl-].[Cl-].[Pt+2] (centres undefined)
T/C (dose: 1.56 mg/kg/injection, schedule: Q01DX009 (ip), vehicle: saline): 106 % of control
T/C (dose: 3.13 mg/kg/injection, schedule: Q01DX009 (ip), vehicle: saline): 107 % of control
T/C (dose: 6.25 mg/kg/injection, schedule: Q01DX009 (ip), vehicle: saline): 124 % of control
T/C (dose: 12.5 mg/kg/injection, schedule: Q01DX009 (ip), vehicle: saline): 153 % of control
T/C (dose: 25.0 mg/kg/injection, schedule: Q01DX009 (ip), vehicle: saline): 172 % of control

C[Si](C)(C)Nc1ncnc2c1ncn2[Si](C)(C)C
T/C [4]: 91 % of control

COc1cc(NS(C)(=O)=O)ccc1Nc1c2ccc(Cl)cc2nc2c(OC)cccc12
T/C (dose: 0.8 mg/kg/injection, schedule: Q01DX005 (iv), vehicle: water): 106 % of control
T/C (dose: 0.8 mg/kg/injection, schedule: Q04DX003 (iv), vehicle: water): 105 % of control
T/C (dose: 1.6 mg/kg/injection, schedule: Q01DX005 (iv), vehicle: water): 99 % of control
T/C (dose: 1.6 mg/kg/injection, schedule: Q04DX003 (iv), vehicle: water): 100 % of control
T/C (dose: 3.3 mg/kg/injection, schedule: Q01DX005 (iv), vehicle: water): 114 % of control
T/C (dose: 3.3 mg/kg/injection, schedule: Q04DX003 (iv), vehicle: water): 109 % of control
T/C (dose: 6.5 mg/kg/injection, schedule: Q04DX003 (iv), vehicle: water): 124 % of control
T/C (dose: 12.5 mg/kg/injection, schedule: Q01DX009 (ip), vehicle: saline with Tween-80): 95 % of control
T/C (dose: 26.0 mg/kg/injection, schedule: Q04DX003 (iv), vehicle: water): 250 % of control

Cc1ccc(S(=O)(=O)N(C)SCl)cc1 (tested in a mixture with another compound)
T/C (dose: 100.0 mg/kg/injection, schedule: Q01DX009 (ip), vehicle: other): 121 % of control

Oc1ccc2ccccc2c1N=Nc1ccccc1
T/C [8]: 87 % of control
T/C [1]: 109 % of control
T/C [9]: 104 % of control
T/C [2]: 104 % of control
T/C [10]: 91 % of control
T/C [3]: 104 % of control

Cc1ccc(NC(=O)c2ccc([N+](=O)[O-])cc2)c(C)c1
T/C [5]: 100 % of control
T/C [6]: 104 % of control
T/C [7]: 96 % of control

COC(=O)C1C(O)C(C)C(OC(C)=O)C(C)/C=C\C=C(C)C(=O)Nc2c(C)c(OC(C)=O)c3c(c2O)C(=O)C(C)=C2OCOC(=C23)C(C)=CC(C)(O)C(O)C(C)C1O (centres undefined)
T/C [8]: 101 % of control
T/C [9]: 106 % of control
T/C [10]: 110 % of control

CCN1C(=O)CN=C(c2ccccn2)c2cc(Cl)ccc21
T/C (dose: 100.0 mg/kg/injection, schedule: Q01DX001 (ip), vehicle: Klucel (hydroxypropylcellulose) (HPC)): 90 % of control
T/C (dose: 200.0 mg/kg/injection, schedule: Q01DX001 (ip), vehicle: Klucel (hydroxypropylcellulose) (HPC)): 104 % of control
T/C (dose: 400.0 mg/kg/injection, schedule: Q01DX001 (ip), vehicle: Klucel (hydroxypropylcellulose) (HPC)): 95 % of control

O=C(O)c1c(Cl)c(Cl)c(Cl)c(Cl)c1C(=O)O.O=C(O)c1c(Cl)c(Cl)c(Cl)c(Cl)c1C(=O)O.[Pt]
T/C (dose: 25.0 mg/kg/injection, schedule: Q04DX003 (ip), vehicle: saline sonified): 115 % of control
T/C (dose: 50.0 mg/kg/injection, schedule: Q04DX003 (ip), vehicle: saline sonified): 120 % of control
